Experimental data published in patent US5310929A, “Prodrugs of imidazole carboxylic acids as angiotensin II receptor antagonists” (E. I. Du Pont de Nemours and Company, priority 1992, dated 1994).
pIC50: −log10 of the molar value.

Columns and labels:
AII receptor = assay: Ligand-receptor binding assay, displacement of [125I]AII from rat adrenal cortex particulate fraction; details: 0.05 nM [125I]AII, 1 h incubation, read-out: Angiotensin II Receptor Binding IC50
Protocol: Angiotensin-II (AII) produces numerous biological responses (e.g. vasoconstriction) through stimulation of its receptors on cell membranes. […] After a 1 h incubation the reaction was terminated by addition of cold assay buffer. The bound and free radioactivity were rapidly separated through glass-fiber filters, and the trapped radioactivity was quantitated by scintillation counting.

Renal Hypertensive Rats = assay: Antihypertensive effect in awake renal hypertensive rats (ligation of left renal artery); format: in vivo, rat; details: for ED30: Rattus norvegicus, oral, read-out: Oral Antihypertensive Effects in Renal Hypertensive Rats ED30
Text: This procedure increases blood pressure by increasing renin production with consequent elevation of AII levels. […] Arterial blood pressure is continuously measured directly through a carotid artery cannula and recorded using a pressure transducer and a polygraph. Blood pressure levels after treatment are compared to pretreatment levels to determine the antihypertensive effects of the compounds.

pIC50 (AII receptor) | Molecule | ED30 (Renal Hypertensive Rats) [mg/kg] | Oral Antihypertensive Effects in Renal Hypertensive Rats ED30 (Renal Hypertensive Rats) [mg/kg]
7.00 | CCCc1nc(CC)c(C(=O)OCN(C)C)n1Cc1ccc(-c2ccccc2-c2nnn[nH]2)cc1 [Example 2, (N,N-Dimethylamino)methyl 4-ethyl-2-propyl-1-[[2'-(tetrazol-5-yl)biphenyl-4-yl]methyl]imidazole-5-carboxylate] |  | 
8.52 | CCCc1nc(CC)c(C(=O)OCOC(=O)OC)n1Cc1ccc(-c2ccccc2-c2nn[nH]n2)cc1 [Example 7] |  | 
8.40 | CCCc1nc(CC)c(C(=O)OC(C)OC(=O)OC)n1Cc1ccc(-c2ccccc2-c2nn[nH]n2)cc1 (stereo not drawn) [Example 11] | 0.02 | 
8.52 | CCCc1nc(CC)c(C(=O)OCc2oc(=O)oc2C)n1Cc1ccc(-c2ccccc2-c2nn[nH]n2)cc1 [Example 13, 1,3-Dioxa-5-methyl-cyclopenten-2-one-4-ylmethyl 4-ethyl-2-propyl-1-[[2'-(tetrazol-5-yl)biphenyl-4-yl]methyl]imidazole-5-carboxylate] | 0.1 | 
8.52 | CCCc1nc(CC)c(C(=O)OCc2oc(=O)oc2C(C)(C)C)n1Cc1ccc(-c2ccccc2-c2nn[nH]n2)cc1 [Example 14, (5-(1.1-Dimethylethyl)-1.3-dioxa-cyclopenten-2-one-4-yl)methyl 4-ethyl-2-propyl-1-[[2'-(tetrazol-5-yl)biphenyl-4-yl)methyl]imidazole-5-carboxylate] | 0.3 | 
8.22 | CCCc1nc(CC)c(C(=O)OCc2oc(=O)oc2-c2ccccc2)n1Cc1ccc(-c2ccccc2-c2nn[nH]n2)cc1 [Example 15] | 0.3 | 
 | Methoxydimethylacetoxymethyl 4-ethyl-2-propyl-1-[[2'-(tetrazol-5-yl)biphenyl-4-yl]methyl]imidazole-5-carboxylate [Example 8] |  | 0.03

Molecule | pIC50 (AII receptor) | ED30 (Renal Hypertensive Rats) [mg/kg] | Oral Antihypertensive Effects in Renal Hypertensive Rats ED30 (Renal Hypertensive Rats) [mg/kg]
CCCc1nc(CC)c(C(=O)OCOC(=O)C(C)(C)C)n1Cc1ccc(-c2ccccc2-c2nnn[nH]2)cc1 [Example 5, Trimethylacetoxymethyl 4-ethyl-2-propyl-1-[[2'-(tetrazol-5-yl)biphenyl-4-yl]methyl]imidazole-5-carboxylate] | 8.70 | 0.03 | 
CCCc1nc(CC)c(C(=O)OCOC(=O)OC(C)(C)C)n1Cc1ccc(-c2ccccc2-c2nnn[nH]2)cc1 [Example 9, t-Butoxycarbonyloxymethyl 4-ethyl-2-propyl-1-[[2'-(tetrazol-5-yl)biphenyl-4-yl]methyl]imidazole-5-carboxylate] | 8.22 | 0.02 | 
CCCc1nc(CC)c(C(=O)OC(C)OC(=O)OC(C)(C)C)n1Cc1ccc(-c2ccccc2-c2nn[nH]n2)cc1 (stereo not drawn) [Example 12] | 8.30 | 0.3 | 
Trimethylacetoxymethyl 4-ethyl-2-propyl-1-[[2'-(N-trimethylacetoxymethyl(tetrazol-5-yl))biphenyl- 4-yl]methyl]imidazole-5-carboxylate [Example 6] | 7.70 |  | 
